Source: ChEMBL document CHEMBL1150615, “Swinhoeiamide A, a new highly active calyculin derivative from the marine sponge Theonella swinhoei” (2002)
In brackets after ≈: the same amount, converted by molar mass.

What was measured:
Assay type in all cases: functional
Spodoptera littoralis [1] = assay: Insecticidal activity against Spodoptera littoralis larvae after 6 days by chronic feeding assay; conditions: 144 h
Spodoptera littoralis [2] = assay: Insecticidal activity against Spodoptera littoralis larvae after 5 days by topical contact assay
Spodoptera littoralis [3] = assay: Insecticidal activity against Spodoptera littoralis larvae dosed into hemolymph injection measured per 1000 mg of larval body weight measured after 48 hrs
Aspergillus fumigatus = assay: Antifungal activity against Aspergillus fumigatus by serial dilution assay
Candida albicans = assay: Antifungal activity against Candida albicans by serial dilution assay
Cladosporium cucumerinum = assay: Antifungal activity against Cladosporium cucumerinum at 25 nmol by bioautographic method

| SMILES | LC50 (Spodoptera littoralis [1]) | LD50 (Spodoptera littoralis [2]) | LD50 (Spodoptera littoralis [3]) | MIC (Aspergillus fumigatus) | MIC (Candida albicans) | inhibition zone (IZ) (Cladosporium cucumerinum) |
| --- | --- | --- | --- | --- | --- | --- |
| CO[C@H]1C[C@]2(O[C@H]([C@@H](C[C@H](O)[C@H](C)[C@H](O)[C@H](C)/C=C(C)/C(C)=C/CC/C(C)=C\C(N)=O)OC)[C@H](OP(=O)(O)O)C2(C)C)O[C@H](C/C=C/c2coc(C)n2)[C@H]1C [SWINHOEIAMIDE A] | 2.98 µg/mL (≈ 3.74 µM) | 10 µg | 0.98 µg | 1 µg/mL (≈ 1.25 µM) | 1.2 µg/mL (≈ 1.51 µM) | 14 mm |
| COC[C@@H]([C@H](O)[C@H](O)C(=O)NCC[C@H](C)c1nc(/C=C/C[C@@H]2O[C@]3(C[C@@H](O)[C@@H]2C)O[C@H]([C@H](C[C@H](O)[C@H](C)[C@H](O)[C@H](C)/C=C(C)/C(C)=C/C=C/C(C)=C\C#N)OC)[C@H](OP(=O)(O)O)C3(C)C)co1)N(C)C [CALYCULIN A] |  |  | 1 µg |  |  |  |
